Measured values published in patent publication US12115182B2, “Adenosine A2A agonists for the treatment of cytokine storm syndrome” (priority 2021, dated 2024).
“Also recorded” adds a separate entry of the source.

Experiments:
[1] = system: BAL fluid cytokines and chemokines; experiment: BAL fluid cytokines/chemokines (31 plex Luminex) in SARS CoV-2-infected K18-hACE2 mice; assay type: in vivo, mouse
Method: Apadenoson treatment elicits cytokine and chemokine responses that are associated with a decrease in weight loss. To assess how apadenoson treatment may be delaying the onset of severe symptoms, mice were treated as before with either vehicle (saline) or apadenoson, delivered with a five-hour delay by osmotic pumps, then euthanized on day five post-infection.
BAL Cytokines: BAL fluid was collected with 700 μL of PBS and cells were removed via centrifugation. The BAL fluid was analyzed by a Luminex Magpix by the UVA Flow Cytometry Core facility using a Mouse 31 plex panel. Statistical changes in cytokine levels were analyzed using Welch's ANOVA followed by Dunnett's T3 multiple comparisons (Graphpad Prism 9.0). P values were adjusted for multiple testing using the Holm-Sidak method.

SARS CoV-2 [2] = experiment: Viral lung titers (plaque assay) and viral burden (IHC) in K18-hACE2 mice; assay type: in vivo, mouse
Method: Viral Lung titers: Titers were determined as described in Moreau et al. (MOREAU et al., Am. J. Trop. Med. Hyg., (2020), 103:1215-1219). Briefly, lungs were homogenized in serum-free DMEM. Titers were determined by infecting Vero C1008, Clone E6 (ATCC CRL-1586) with serial dilutions of the homogenate. After a two-hour incubation, the diluted homogenates were replaced with a liquid overlay of DMEM, 2.5% FBS containing 1.2% Avicel PH-101 (Sigma Aldrich, St. Louis, MO) and incubated at 37° C., 5% CO2. After three days, the overlay was removed, wells were fixed with 10% formaldehyde, and stained with 0.1% crystal violet to visualize plaques. Plaques were counted and PFUs were calculated according to the following equation: Average # of plaques/dilution factor×volume of diluted virus added to the well.
Histology: Tissues were fixed in 10% formalin. To visualize virus in the lungs, slides were stained with SARS-CoV2 specific anti-nucleoprotein antibody (Cat. No. 9099, ProSci, Poway, CA) as per manufacturer's instructions and then scanned at 20× magnification. The percentage of lung tissue infected with virus was calculated (ImageJ, version 1.53K).

MHS cells = experiment: RAGE shedding in alveolar macrophages (MHS): Western blot of sRAGE, immunofluorescence of RAGE; assay type: cell-based, mouse; conditions: GM6001 2 nM, regadenoson 100 nM; for PMA-induced shedding of cell membrane-anchored RAGE: PMA-treated MHS cells, ATL146e 10 nM
[3] = system: SARS-CoV-2 strain B.1.351; assay type: in vivo, Golden Syrian hamster
SARS CoV-2 [4] = experiment: Apadenoson in K18-hACE2 mouse model of COVID-19: survival, weight, clinical scores; conditions: for mice survived (combined survival data): Alzet pump 1.44 ug/kg/h, 1250 PFU
Method: K18-hACE2 mice, ranging in age from 17 to 30 weeks were divided into three groups. One group received saline (vehicle), another received apadenoson 18 hours before viral challenge (drug) and a third received apadenoson five hours post viral challenge (drug with delay). The mice were challenged intranasally with 1250 PFU SARS CoV-2. Mouse weight and clinical scores were recorded daily. Mice were euthanized when they met the criteria for euthanasia (see methods) or at the end of the experiment, which was day 12 post viral challenge.
Infection and treatment: Twenty-four hours prior to infecting Tg(K18-hACE2)2Prlmn (Jackson Laboratories) male mice with SARS CoV-2, primed 7-day Alzet® osmotic pumps (Durect, Cuperton, CA) containing saline or drug were implanted subcutaneously (MCCRAY et al., J. Virol., (2007), 81:813-821). In the drug with delay treatment group drug delivery was delayed by 24 hours by adding 2.5 cm long tubing to the pump. Apadenoson was delivered at a rate of 1.5 μg/kg/hr. Uninfected littermates received saline or drug with delay via osmotic pumps. Mice were challenged with 1250 plaque forming units (PFU) of Hong Kong/VM20001061/2020 (NR-52282, BEI Resources) via intranasal route under ketamine/xylazine anesthesia. Mice were examined twice daily for clinical symptoms and scored using the following criteria: weight loss (0-5, in 5% of initial weight loss increments), reduced activity (0-3), ruffled fur appearance and hunched posture (0-2), and an eye closure (0-2). Mice were euthanized when weight was <80% of initial weight or when they scored a maximum in two symptom categories. This experiment was repeated three times, with six animals per treatment group each time. […] Statistical differences in weight loss and clinical scores by treatment group were determined using linear mixed models accounting for day post-infection and the day the mouse died (Ime4 and ImerTest packages (BATES et al., J. Stat. Softw., (2015), 67; KUZNETSOVA et al., J. Stat. Softw., (2021), 82) in R (R Core Team 2021). For mice surviving to the end of the experiment (day 12 post-infection), day of death=15 was used. All mouse work was approved by the University's Institutional Animal Care and Use Committee and all procedures were performed in the University's certified animal Biosafety Level Three laboratory, which is fully accredited by the Association for the Assessment and Accreditation of Laboratory Animal Care, International (AAALAC).

COVID-19 patients = conditions: cited from earlier work
[5] = drug with delay treatment group
[6] = PI day 7, compared to control group
[7] = drug and drug with delay-treated groups

In the case of `CCNC(=O)[C@H]1O[C@@H](n2cnc3c(N)nc(C#CC[C@H]4CC[C@H](C(=O)OC)CC4)nc32)[C@H](O)[C@@H]1O` [Apadenoson], the “cytokines/chemokines not different between uninfected, vehicle-infected control and drug with delay-infected mice” value ([1]; BAL fluid, day five post-infection) was 18/31, the “levels of eight cytokines and chemokines (MIG, G-CSF, Eotaxin, MIP1b, VEGF, INF-g, TNF-a, KC) in BAL fluid” value [1, 5] was “not significantly different from uninfected mice” and the “IP-10 level in BAL fluid” value ([1]; drug with delay-infected group compared to vehicle, p=0.0223) was “statistically higher”. The “MCP-1 level in BAL fluid” value ([1]; drug with delay-infected group compared to vehicle, p=0.0351) was “statistically higher”, the “viral titers in lungs of surviving mice” value (SARS CoV-2 [2]; both drug treatment groups) was “below the limit of detection” and the “average viral titer of lung homogenates” value (SARS CoV-2 [2]; [5]) was “trended lower, but was not significant; also recorded: trended lower”. For the same molecule, the “viral burden in lungs by IHC staining” value (SARS CoV-2 [2]; drug with delay treatment group, p=0.0012) was “significantly lower”, the “PMA-induced shedding of cell membrane-anchored RAGE” value (“PMA-induced shedding” for short) (MHS cells) was “partially inhibited” and the “PMA-induced shedding” value (MHS cells; listed as apadensoson) was “suppressed the shedding of RAGE”. The “albumin leakage into BAL” value [3, 6] was “slight decrease; also recorded: did not significantly”, the “plasma IL13” value [3, 6] was “slightly elevated; also recorded: did not significantly” and the “time course of the disease or viral titer detected in throat swabs” value ([3]; RT-qPCR) was “did not significantly”. The “plasma IL4” value ([3]; compared to control) was “depressed; also recorded: did significantly”, the “decrease in weight gain” value ([3]; daily weights, vs control group) was “did not significantly” and the “histologic distribution or severity of lung pathology” value ([3]; day 7) was “did not significantly”. For the same molecule, the “plasma Transforming Growth Factor beta (TGFb)” value ([3]; day 7, compared to control) was “decreased; also recorded: did significantly”, the “spread of virus to olfactory bulb (brain)” value ([3]; day 7, compared to control) was “decreased; also recorded: did significantly” and the “respiratory physiology parameters (EF50, Rpef, Penh)” value ([3]; whole body plethysmography, PI day 7) was “did not significantly”. For the same molecule, the “clinical scores compared to vehicle” value (SARS CoV-2 [4]; [7]) was “statistically significantly lower”, the “weight loss compared to vehicle” value (SARS CoV-2 [4]; [7]) was “less weight loss” and the “weight loss and clinical scores on day five post-infection” value (SARS CoV-2 [4]; drug with delay vs vehicle) was “not statistically different between groups”. The “mice survived (combined survival data)” value (SARS CoV-2 [4]; drug with delay) was 5/12, the “survival curve compared to vehicle” value (SARS CoV-2 [4]; drug with delay-treated group, p=0.0002) was “significantly different than vehicle” and the “mice survived (combined survival data)” value (SARS CoV-2 [4]; drug with no delay) was 4/12. The “survival curve compared to vehicle” value (SARS CoV-2 [4]; drug-treated group, p=0.066) was “did not differ significantly”.
With `CNC(=O)[C@H](Cc1c[nH]c2ccccc12)NC(=O)[C@@H](CC(=O)NO)CC(C)C` [GM6001] the “sRAGE shedding on LPS-treated MHS cells” value (MHS cells; LPS 75 ng/ml, apadenoson 10 nM) was “inhibited sRAGE shedding”, the “levels of sRAGE in the conditional media (Western blot)” value (MHS cells; PMA (20 nM)-treated MHS cells, 24 hours) was “decreased” and the “PMA-induced shedding” value (MHS cells) was “suppressed the shedding of RAGE; also recorded: partially blocked”.
For `Nc1ncnc2c1ncn2[C@@H]1O[C@H](CO)[C@@H](O)[C@H]1O` [adenosine], the “increase in PaO2/FiO2-ratio” value (COVID-19 patients; aerosolized, twice daily, in 13 out of 14 patients) is given as over 30% and the death rate (COVID-19 patients; inhaled adenosine group, 1/14, control group 11/52 (21%)) is given as 7%.
